Where no end group is shown, it is not given here.
Assays:
[1] = system: Primary cells, HUVEC, AHDF and CASMC; test: Tetrazolium-based cell viability assay, primary cells; design: species or system human; conditions: range over HUVEC, 48 h, MTT, estimated, three independent experiments
Protocol: Human epithelial cervical cancer (HeLa), leukemic monocyte lymphoma (U937), prostate cancer (PC3), promyelocytic leukemia (HL-60), leukemic T cell lymphoblast (Jurkat) cells were cultured in RPMI-1640 medium supplemented with 5–10% (v/v) fetal calf serum (FCS), 100 U/mL penicillin and 100 μg/mL streptomycin (Invitrogen, Carlsbad, CA). Human umbilical vein […] cell (HUVEC) cells were cultured in M199 medium (Invitrogen) supplemented with 20% (v/v) FCS, 40 μg/mL gentamicin, 4 μg/mL endothelial cell growth factor, 4 μg/mL L-glutamine and 135 μg/mL heparin, in 0.1% (w/v) gelatin-coated Corning CELLBIND flask (Corning Life Sciences, Acton, MA). […]
Different concentrations of HBD-3 were added to cells seeded in 96-well plates in appropriate complete medium. […] After 48 h, cell viability was determined using 3-(4,5-dimethylthiazol-2-yl)-2,5-diphenyltetrazolium bromide (MTT) (Sigma-Aldrich, MO) for adherent cells (HeLa, PC3, HUVEC, AHDF, CASMC) or 3-(4,5-dimethylthiazol-2-yl)-5-(3-carboxymethoxyphenyl)-2-(4-sulfophenyl)-2H-tetrazolium (MTS) (Promega, Madison, WI) coupled with phenzine methosulfate (PMS) (Promega) for suspension cells (U937, HL-60, Jurkat) prior to absorbance measurement at 570 nm and […], respectively. Absorbance readings of untreated control wells was designated as 100% cell viability.

HUVEC cells = test: Flow cytometry-based PI uptake assay, HUVEC; format: cell-based, human; conditions: 25 μM HBD-3, 37°C, 30 min, serum-free medium with 0.1% BSA
Protocol: (§1) Cells suspended at 1×10^6 cells/mL in serum-free medium containing 0.1% (w/v) bovine serum albumin (BSA) (Sigma-Aldrich) were treated with HBD-3 at 37°C for 30 min. Nucleic acid stain propidium iodide (PI) was then added to a final concentration of 1 μg/mL and cells subjected to flow cytometry analysis using BD FACSCanto II Flow Cytometer and BD FACSDiva Software v6.1.1 (BD Biosciences, San Jose, CA). For each flow cytometry reading, 10,000 cells, gated appropriately based on forward scattering and side scattering, were recorded. The resultant data were processed using FlowJo software (Tree Star, San Carlos, CA) to determine PI-positivity, which reflects the level of membrane permeabilisation. For lipid inhibition assays, 15 μM HBD-3 was pre-incubated with 50 μM synthetic lipids, including L-α-phosphatidic acid (PA), L-α-phosphatidylcholine (PC), L-α-phosphatidylethanolamine (PE), L-α-phosphatidylserine (PS), L-α-phosphatidylinositol-4-phosphate (PI(4)P), L-α-phosphatidylinositol-3,5-bisphosphate (PI(3,5)P2), L-α-phosphatidylinositol-4,5-bisphosphate (PI(4,5)P2) and L-α-phosphatidylinositol-3,4,5-trisphosphate (PI(3,4,5)P)3. All lipids were sourced from Avanti Polar Lipids, Alabaster, AL. […]

HeLa cells [2] = test: PI-positive counting of GFP-PH versus GFP only transfected cells by CLSM; format: cell-based, human; conditions: 15 μM HBD-3, confocal imaging over 30 min, five independent experiments
Protocol: (§2) Live imaging was performed on a Zeiss LSM-780 confocal microscope using a 63× oil immersion objective in a 37°C incubator with 5% CO2. Adherent HeLa cells were cultured overnight on coverslips while suspension U937 cells were immobilised onto 0.01% (w/v) poly-L-lysine-coated coverslips. Both cell types were prepared in serum-free RPMI 1640 medium containing 0.1% (w/v) BSA and 2 μg/mL PI. HBD-3 or BODIPY FL EDA-labeled HBD-3 was added directly to the imaging chamber to final concentration of 15 μM, via a capillary tube. In certain experiments, prior to imaging, cells were pre-stained with the membrane dye PKH67 as per manufacturer's instructions (Sigma-Aldrich) or transfected with expression vectors carrying GFP only or GFP-tagged Pleckstrin homology domain of phospholipase C-delta 1 (GFP-PH(PLCδ1)) (kindly provided by Christina Mitchell, Monash University, Australia), using Lipofectamine 3000 reagent (Invitrogen) as per manufacturer's instructions. For CLSM involving transfections, images were taken as 4×4 tiles over 30 min, and the resultant data for GFP and GFP-PH transfected cells were analysed by counting PI-positive cells.

[3] = system: primary cell type (HUVEC, AHDF, CASMC); test: Flow cytometry-based PI uptake assay, primary cell types; design: species or system human; conditions: 50 μM HBD-3 (highest dose tested), each primary cell type, 37°C, 30 min
Protocol: as §1

U937 cells [4] = test: Neomycin inhibition of membrane permeabilisation (PI uptake); format: cell-based, human; conditions: cells pre-treated with 10 mM neomycin, PI uptake by flow cytometry; effect overcome at higher HBD-3 concentrations
Protocol: as §1

HeLa cells [5] = test: ATP bioluminescence release assay, HeLa; format: cell-based, human; conditions: HBD-3 titrations, bioluminescence for 30 min, PBS with 0.1% BSA, concentration-dependent
Protocol: (§3) ATP release assay was conducted using an ATP bioluminescence assay kit (Roche Diagnostics, Mannheim, Germany). U937 and HeLa cells were suspended at 1×10^6 cells/mL in PBS containing 0.1% (w/v) BSA, and mixed with luciferase/luciferin reagent at a ratio of 4:5. The mixture was added to HBD-3 samples and the level of ATP release measured immediately as bioluminescence emission signal intensity for 30 min with 30 s intervals.

U937 and HeLa cells = test: Confocal laser scanning microscopy of membrane blebbing; format: cell-based, human; conditions: 15 μM HBD-3, 15 min after addition, PKH67 and PI staining
Protocol: as §2

U937 cells [6] = test: ATP bioluminescence release assay, U937; format: cell-based, human; conditions: HBD-3 titrations, bioluminescence for 30 min, PBS with 0.1% BSA, concentration-dependent
Protocol: as §3

“human β-defensin 3 (GIINTLQKYYCRVRGGRCAVLSCLPKEEQIGKCSTRGRKCCRRKK; not fully specified; cysteine pairing not given here; UniProt P81534 23-67, looked up) [HBD-3, human β-defensin 3, cationic antimicrobial peptide, recombinantly expressed in P. pastoris]” was tested, and the IC50 [1] was 30 to 65 µM, the PI-positive cells (HUVEC cells) was 14.5% and the “fold lower number of PI-positive cells in GFP-PH(PLCδ) versus GFP only-transfected cells” value (HeLa cells [2]) was 2.5 fold. The “cells permeabilised (PI-positive)” value [3] was “less than 20%”, the “susceptibility of neomycin pre-incubated cells to permeabilisation compared to untreated control” value (U937 cells [4]) was “significantly less susceptible” and the “cytoplasmic ATP release” value (HeLa cells [5]) was “rapidly released”. The “size of membrane blebs formed in PI-positive cells” value (U937 and HeLa cells) was over 10 μm and the “cytoplasmic ATP release” value (U937 cells [6]) was “rapidly released”.

— PMC4811302, “Human β-defensin 3 contains an oncolytic motif that binds PI(4,5)P2 to mediate tumour cell permeabilisation” (Oncotarget, 2015)
